Measurements from US12076409B2, “Polymer-drug conjugates for combination anticancer therapy” (priority 2015, dated 2024).

What was measured:
[1] = tested on: human breast cancer cell line BT-474; test: MTT cell viability and drug combination studies in BT-474 cells; assay type: cell-based; settings: BT-474, 72 hours, read-out: D50 (concentration of drug required to inhibit 50% cell growth)
Experimental: BT-474 or bEnd.3 cells were seeded in a 96-well cell culture plate at a density of 10,000 cells per well in a total volume of 100 μL/well and allowed to adhere overnight. Media was then replaced with fresh media containing drug(s). Drugs were first dissolved in DMSO, and then further diluted in full cell culture medium so as not to expose cells to more than 0.5 vol % DMSO. BT-474 cells were incubated with drug solutions for 72 hours, while bEnd.3 cells were exposed to drug solutions for 48 hours. […] To assess cell viability, the media was replaced with 0.5 mg/mL MTT in media and allowed to incubate for 4 hours. […] Formazan dye intensity was determined by absorbance measured at 570 nm in a Tecan Infinite M200 Pro plate reader (Männedorf, Switzerland). The fraction of inhibited cell growth was calculated by subtracting live cells in experimental wells from untreated control cells and normalizing against control cells. D50 refers to the concentration of drug required to inhibit 50% cell growth. Experimental cytotoxicity data were fitted to the median-effect model developed by Chou and Talalay to obtain in vitro cytotoxicity curves for each drug.

BT-474 cells [2] = test: Annexin V/Sytox Green apoptosis assay (flow cytometry); assay type: cell-based, human; settings: BT-474, 72 hours, single drug
Experimental: Apoptosis assessment was made based on Annexin V and Sytox Green counterstaining. Studies followed the Life Technologies Apoptosis Assay protocol, with few modifications tailored to BT-474 cells. Briefly, cells were seeded at a concentration of 100×10^4 cells per 25 cm^2 cell culture flask in a total volume of 10 mL media, and allowed to adhere overnight. Media was then decanted and replaced with fresh media containing drug(s). Drugs were first dissolved in DMSO and further diluted in media such that cells were not exposed to more than 0.2 vol % DMSO. Cells were incubated in the presence of drug(s) for 72 hours. After drug exposure, cells were harvested at a concentration of 1×10^6 cells/mL in Annexin V binding buffer, and 200 μL of each sample were incubated with 5 μL of Annexin V-647 and 1 μL of 1 μM Sytox Green. After 15 minutes of dye incubation, cells were diluted 5× in ice cold Annexin V Binding Buffer, and immediately analyzed via flow cytometry in a Becton Dickinson FACSAria cell sorter (Franklin Lakes, NJ, USA). To quantify Annexin V-647 and Sytox Green fluorescence, a 633 nm laser with 660 PMT and a 488 nm laser with 530 PMT, respectively, were utilized. […]
Scatter plots obtained from flow cytometry of AnnexinV/Sytox Green counterstained cells were analyzed. These plots were utilized to quantify early apoptotic and late apoptotic/necrotic populations in FIG. 2. […]

small cell lung cancer = settings: patients with small cell lung cancer; cited from earlier work
BT-474 cells [3] = test: Internalization studies by confocal laser scanning microscopy; assay type: cell-based, human; settings: BT-474, 24 hrs
Experimental: To assess the effect of HA-conjugation on the internalization of CPT or DOX in BT-474 cells, confocal laser scanning microscopy was utilized. Cells were seeded at a density of 80,000 cells per 300 μL media in an 8-well chambered borosilicate coverglass (Nunc Lab-Tek), and were allowed to adhere overnight. Cells were exposed to the same drug concentration, the free drug D50, of either the free drug solution or the HA-conjugate form for 24 hrs at 37° C. and 5% CO2. Post-drug incubation, cells were washed twice with warmed PBS (pH 7.4), followed by staining with nuclear dyes at 37° C., 5% CO2. In the case of DOX-exposed cells, Hoechst nuclear dye was utilized at a concentration of 25 μg/mL for 30 minutes. For CPT-exposed cells, to avoid overlap fluorescence between CPT and nuclear marker, DRAQ5 was used to stain nuclei at a concentration of 5 μM in media for 60 minutes. Cells were washed twice more in warm PBS and finally suspended in media immediately prior to imaging. All cells were imaged live with an Olympus Fluoview 1000 spectral confocal equipped with a 60× silicon oil objective and a 37° C. temperature-controlled imaging chamber. […] Z-stacks of 10 μm were captured and subsequently analyzed with ImageJ 1.47h software (NIH). Each z-stack was collapsed into an averaged image, and fluorescence intensity was reported as the raw integrated density divided by number of cells. […]

| SMILES | IC50 [1] [µM] | percentage of apoptotic cells (BT-474 cells [2]) | overall response rate (small cell lung cancer) [%] | intracellular distribution (BT-474 cells [3]) |
| --- | --- | --- | --- | --- |
| CC[C@@]1(O)C(=O)OCc2c1cc1n(c2=O)Cc2cc3ccccc3nc2-1 [CPT, Camptothecin] | 100 | low percentages of apoptotic cells |  |  |
| COc1cccc2c1C(=O)c1c(O)c3c(c(O)c1C2=O)C[C@@](O)(C(=O)CO)C[C@@H]3O[C@H]1C[C@H](N)[C@H](O)[C@H](C)O1 [DOX, Doxorubicin] |  |  | > 20 | more diffuse and co-localized with cell nuclei |
